Source: US7300784B2 (priority 2001, dated 2007)
Values joined by “and” are separate entries in the source; they are usually repeats but may differ in a detail not shown here. Equal values may be shown once.

Experiments:
[1] = tested on: Rhodococcus rhodochrous ATCC 332878; format: cell-based
Rhodococcus sp. Cr4 = format: cell-based
[2] = tested on: nitrile hydratase of Rhodococcus sp. Cr4; format: biochemical

[Cl][Ni][Cl] [NiCl2]
Relative activity (%) [1]: 193%
Relative activity (%) (Rhodococcus sp. Cr4): 186%
effect on nitrile hydratase activity in resting cell reaction (Rhodococcus sp. Cr4): enhanced
Relative activity (%) [2]: 196% and 185% and 171% and 197% and 195% and 184%
effect on enzyme activity (words) [2]: enhanced
enhancement of the enzymatic activity [2]: enhanced twice
